Values quoted from earlier work as cited in patent publication US12187744B2, “IRAK4 degraders and synthesis thereof” (Kymera Therapeutics, Inc., priority 2021, dated 2025).

Tests used:
[1] = per ICH M7(R1) guidance
[2] = in vivo

| SMILES | ICH M7(R1) Class [1] | results in rodent carcinogenicity assays [2] |
| --- | --- | --- |
| CC(C)Cl [Isopropyl chloride] | 2 | – |
| CI [Methyl iodide] | – | positive |
